From ChEMBL document CHEMBL1201862, “PubChem BioAssay data set” (2004)
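Values below derive from 48-hour exposures of cells grown in 96-well plates, with endpoints linearly interpolated between the two concentrations bracketing the appropriate inhibition level. GI50: concentration for 50% inhibition of growth.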 Calls of active or inactive are those of the source. Rule as the data show it: active = GI50 up to about 1.1 µM and inactive = higher.

Columns and labels:
Experiment in all cases: growth of human tumour cells (NCI), 48 h
A549 = system: A549
CCRF-CEM = system: CCRF-CEM
DU-145 = system: DU-145
HCT-116 = system: HCT-116
HOP-62 = system: HOP-62
MOLT-4 = system: MOLT-4
Malme-3M = system: Malme-3M
NCI-H226 = system: NCI-H226
NCI-H522 = system: NCI-H522
NCI/ADR-RES = system: NCI/ADR-RES
OVCAR-3 = system: OVCAR-3
SF-295 = system: SF-295
SNB-19 = system: SNB-19
U-251 = system: U-251
COLO 205 = system: COLO 205
KM12 = system: KM12
MDA-MB-231 = system: MDA-MB-231
SK-OV-3 = system: SK-OV-3
UACC-62 = system: UACC-62

Measured: GI50

O=[N+]([O-])c1cccnc1NCC1(CO)CCCC1
inactive: A549 35.2 µM | CCRF-CEM 29.4 µM | DU-145 36 µM | HCT-116 26 µM | HOP-62 33 µM | MOLT-4 15.6 µM | Malme-3M 20.7 µM | NCI-H226 25.6 µM | NCI-H522 21.7 µM | NCI/ADR-RES 20 µM | OVCAR-3 19.8 µM | SF-295 23.8 µM | SNB-19 56.4 µM | U-251 16.9 µM

COc1ccc(C2SC(=N)Nc3c2c(C)nn3C(=O)Cc2ccccc2)cc1 (centres undefined)
inactive: A549 > 100 µM | CCRF-CEM > 100 µM | COLO 205 > 100 µM | DU-145 > 100 µM | HCT-116 > 100 µM | HOP-62 > 100 µM | KM12 > 100 µM | MDA-MB-231 > 100 µM | MOLT-4 > 100 µM | Malme-3M > 100 µM | NCI-H226 > 100 µM | NCI-H522 > 100 µM | SF-295 > 100 µM | SK-OV-3 > 100 µM | SNB-19 > 100 µM | UACC-62 > 100 µM

COC(=O)CCCc1ccc2c(c1)CC1(C2)Cc2cc3c(cc2C1)CCCC3
inactive: A549 22.1 µM | COLO 205 20.5 µM | HCT-116 3.8 µM | HOP-62 34.8 µM | KM12 36.9 µM | MDA-MB-231 > 100 µM | MOLT-4 11.6 µM | Malme-3M 37.6 µM | NCI-H226 38.1 µM | NCI-H522 17.7 µM | NCI/ADR-RES 47.6 µM | OVCAR-3 27.5 µM | SF-295 45.7 µM | SK-OV-3 > 100 µM | U-251 40.5 µM | UACC-62 21.1 µM

Cc1ccc(Nc2[nH]c(=O)[nH]c(=O)c2C)cc1Cl
inactive: A549 > 100 µM | COLO 205 > 100 µM | HCT-116 > 100 µM | HOP-62 > 100 µM | KM12 > 100 µM | MDA-MB-231 > 100 µM | Malme-3M > 100 µM | NCI-H226 > 100 µM | NCI-H522 > 100 µM | NCI/ADR-RES > 100 µM | OVCAR-3 62.1 µM | SF-295 26.2 µM | SK-OV-3 > 100 µM | SNB-19 > 100 µM | U-251 > 100 µM | UACC-62 59.3 µM

Cc1ccc(OCCn2cc(Nc3ccccc3)c(=O)n(CCOc3ccc(C)cc3)c2=O)cc1
inactive: A549 28.8 µM | CCRF-CEM > 100 µM | COLO 205 > 100 µM | DU-145 > 100 µM | HCT-116 > 100 µM | KM12 > 100 µM | MDA-MB-231 69.5 µM | MOLT-4 67.1 µM | Malme-3M 80 µM | NCI-H226 > 100 µM | NCI-H522 97.7 µM | NCI/ADR-RES > 100 µM | OVCAR-3 > 100 µM | SF-295 50.2 µM | SNB-19 48.9 µM | U-251 51.6 µM | UACC-62 > 100 µM

Cc1ccccc1N(CCC#N)C1=NN(C(=O)CC(=O)Nc2ccccc2)C(c2ccccc2)C1 (centres undefined)
inactive: A549 > 100 µM | CCRF-CEM > 100 µM | COLO 205 > 100 µM | HCT-116 > 100 µM | HOP-62 > 100 µM | KM12 > 100 µM | MOLT-4 > 100 µM | Malme-3M > 100 µM | NCI-H226 > 100 µM | NCI-H522 > 100 µM | OVCAR-3 > 100 µM | SF-295 > 100 µM | SK-OV-3 > 100 µM | SNB-19 > 100 µM | U-251 > 100 µM | UACC-62 > 100 µM

COc1cc(/C=N/N=C(\N)NO)ccc1O
inactive: A549 47.3 µM | CCRF-CEM > 100 µM | COLO 205 > 100 µM | HCT-116 69.8 µM | KM12 77.1 µM | MOLT-4 65.9 µM | Malme-3M 75.9 µM | NCI-H226 14.1 µM | NCI-H522 46.3 µM | SF-295 26.1 µM | SK-OV-3 78.7 µM | SNB-19 > 100 µM | U-251 91.2 µM | UACC-62 30.4 µM

CC1=N[C@](C)(C2CC3C=CC2C3=O)COC1=O (some centres undefined)
inactive: A549 > 100 µM | CCRF-CEM > 100 µM | COLO 205 > 100 µM | DU-145 > 100 µM | HCT-116 > 100 µM | HOP-62 > 100 µM | KM12 > 100 µM | MDA-MB-231 > 100 µM | MOLT-4 > 100 µM | Malme-3M > 100 µM | NCI-H226 > 100 µM | NCI-H522 > 100 µM | OVCAR-3 > 100 µM | SF-295 > 100 µM | SK-OV-3 > 100 µM | SNB-19 > 100 µM | U-251 > 100 µM | UACC-62 > 100 µM

Cc1cc(=O)n(-c2ccccc2C)c(C)n1
inactive: A549 > 100 µM | CCRF-CEM > 100 µM | COLO 205 > 100 µM | HCT-116 > 100 µM | HOP-62 > 100 µM | KM12 > 100 µM | MOLT-4 > 100 µM | Malme-3M > 100 µM | NCI-H226 > 100 µM | NCI-H522 > 100 µM | OVCAR-3 > 100 µM | SF-295 > 100 µM | SK-OV-3 > 100 µM | SNB-19 > 100 µM | U-251 > 100 µM | UACC-62 > 100 µM

O=C(NC(CCCCN1C(=O)c2ccccc2C1=O)P(=O)(Oc1ccccc1)Oc1ccccc1)OCc1ccccc1 (centres undefined)
inactive: A549 > 100 µM | COLO 205 > 100 µM | DU-145 > 100 µM | HOP-62 71.8 µM | KM12 > 100 µM | Malme-3M > 100 µM | NCI-H226 > 100 µM | NCI-H522 75 µM | NCI/ADR-RES > 100 µM | OVCAR-3 > 100 µM | SF-295 > 100 µM | SK-OV-3 > 100 µM | SNB-19 > 100 µM | U-251 > 100 µM | UACC-62 > 100 µM

N=C1OC(c2ccc3c(c2)OCO3)C(NNS(=O)(=O)c2ccccc2)=C1O (centres undefined)
inactive: A549 > 100 µM | CCRF-CEM 44.6 µM | COLO 205 > 100 µM | HCT-116 > 100 µM | HOP-62 > 100 µM | KM12 > 100 µM | MOLT-4 > 100 µM | Malme-3M > 100 µM | NCI-H226 > 100 µM | NCI-H522 48.5 µM | OVCAR-3 > 100 µM | SF-295 > 100 µM | SK-OV-3 > 100 µM | SNB-19 > 100 µM | U-251 54.7 µM | UACC-62 > 100 µM

Nc1ncc(Sc2ccccc2C(=O)O)s1
inactive: A549 > 100 µM | CCRF-CEM > 100 µM | COLO 205 > 100 µM | DU-145 > 100 µM | HCT-116 > 100 µM | HOP-62 > 100 µM | KM12 > 100 µM | MDA-MB-231 > 100 µM | MOLT-4 > 100 µM | NCI-H226 > 100 µM | NCI/ADR-RES > 100 µM | OVCAR-3 > 100 µM | SF-295 > 100 µM | SNB-19 > 100 µM | U-251 > 100 µM | UACC-62 > 100 µM

O=c1[nH]nc(Cc2ccc([N+](=O)[O-])cc2)[nH]1
inactive: A549 > 100 µM | CCRF-CEM > 100 µM | COLO 205 > 100 µM | DU-145 > 100 µM | HCT-116 > 100 µM | HOP-62 > 100 µM | KM12 > 100 µM | MOLT-4 > 100 µM | Malme-3M > 100 µM | NCI-H226 > 100 µM | NCI-H522 > 100 µM | NCI/ADR-RES > 100 µM | OVCAR-3 > 100 µM | SF-295 > 100 µM | SNB-19 > 100 µM | U-251 > 100 µM | UACC-62 > 100 µM

CCOC(=O)CCC(NC(=O)OCc1ccccc1)C(=O)NC(CCC(=O)OCC)C(=O)NC(CCC(=O)OCC)C(=O)NC(CCC(=O)OCC)C(=O)NC(CCC(=O)OCC)C(=O)OCC (centres undefined)
inactive: A549 > 100 µM | CCRF-CEM > 100 µM | COLO 205 > 100 µM | DU-145 > 100 µM | HCT-116 > 100 µM | HOP-62 > 100 µM | KM12 > 100 µM | MOLT-4 > 100 µM | Malme-3M > 100 µM | NCI-H522 > 100 µM | NCI/ADR-RES > 100 µM | SF-295 > 100 µM | SK-OV-3 > 100 µM | U-251 > 100 µM | UACC-62 > 100 µM

C=C(C)[C@H]1C=C[C@@H](OC(C)=O)[C@@]2(COC(C)=O)[C@H](OC(=O)CCC)[C@H]3[C@@H](OC(C)=O)[C@@H](C)C[C@]3(O)C(=O)[C@@](C)(OC(C)=O)[C@H]12
inactive: A549 32.7 µM | CCRF-CEM 42.4 µM | COLO 205 22 µM | HCT-116 37.6 µM | KM12 39.9 µM | MDA-MB-231 56.9 µM | MOLT-4 33.6 µM | Malme-3M 45.3 µM | NCI-H226 40.1 µM | NCI-H522 56 µM | NCI/ADR-RES 42.5 µM | SNB-19 66.2 µM | U-251 33.9 µM | UACC-62 66.5 µM

O=C1C(=CNc2ccccc2Cl)C(=O)N(c2ccccc2)C(=O)N1c1ccccc1
inactive: A549 > 100 µM | CCRF-CEM > 100 µM | COLO 205 > 100 µM | HCT-116 > 100 µM | HOP-62 > 100 µM | KM12 > 100 µM | MDA-MB-231 > 100 µM | MOLT-4 > 100 µM | Malme-3M > 100 µM | NCI-H226 > 100 µM | NCI-H522 > 100 µM | NCI/ADR-RES > 100 µM | OVCAR-3 > 100 µM | SF-295 > 100 µM | SK-OV-3 > 100 µM | SNB-19 > 100 µM | U-251 > 100 µM | UACC-62 > 100 µM

Cc1ccccc1C1OC(=O)c2ccccc21 (centres undefined)
inactive: A549 > 100 µM | CCRF-CEM > 100 µM | COLO 205 > 100 µM | HCT-116 > 100 µM | HOP-62 > 100 µM | KM12 > 100 µM | MOLT-4 > 100 µM | Malme-3M > 100 µM | NCI-H226 > 100 µM | NCI-H522 > 100 µM | OVCAR-3 > 100 µM | SK-OV-3 > 100 µM | SNB-19 > 100 µM | U-251 > 100 µM | UACC-62 56.1 µM
